Species on record: Rattus norvegicus
Assay: DrugMatrix - Regimen: Daily Repeat
Type: toxicity, organism-based, Sprague-Dawley
Set-up: regimen Daily Repeat, gender Male, age 6-8 weeks
Conditions: in vivo, po, route oral GAVAGE, vehicle .5 % CMC; for ABSOLUTE BASOPHIL / ABSOLUTE EOSINOPHIL / ABSOLUTE LYMPHOCYTE / ABSOLUTE MONOCYTE / ABSOLUTE SEGMENTED NEUTROPHIL / BASOPHIL / EOSINOPHIL / ERYTHROCYTE COUNT / HEMATOCRIT / HEMOGLOBIN / LEUKOCYTE COUNT / LYMPHOCYTE / MEAN CORPUSCULAR HEMOGLOBIN / MEAN CORPUSCULAR HEMOGLOBIN CONCENTRATION / MEAN CORPUSCULAR VOLUME / MONOCYTE / NEUTROPHIL / NUCLEATED RED BLOOD CELLS / PLATELET COUNT: tissue Blood; for ALANINE AMINOTRANSFERASE / ALBUMIN / ALKALINE PHOSPHATASE / ASPARTATE AMINOTRANSFERASE / BLOOD UREA NITROGEN / CARBON DIOXIDE / CHLORIDE / CHOLESTEROL / CREATINE PHOSPHOKINASE / CREATININE / GLUCOSE / LACTATE DEHYDROGENASE / LIPASE / PHOSPHORUS / POTASSIUM / SODIUM / TOTAL BILIRUBIN / TOTAL PROTEIN / URIC ACID: tissue Plasma
[1] = 100 mg/kg, 120 h, dose level Low, time 5 day
[2] = 1500 mg/kg, 72 h, dose level High, time 3 day
[3] = 1500 mg/kg, 120 h, dose level High, time 5 day

With `CO[C@H]1/C=C/O[C@@]2(C)Oc3c(C)c(O)c4c(c3C2=O)C2=NC3(CCN(CC(C)C)CC3)NC2=C(NC(=O)/C(C)=C\C=C\[C@H](C)[C@H](O)[C@@H](C)[C@@H](O)[C@@H](C)[C@H](OC(C)=O)[C@@H]1C)C4=O` [RIFABUTIN] the “ABSOLUTE BASOPHIL” value [1] was 0 CELLS/uL, the “ABSOLUTE EOSINOPHIL” value [1] was 0 CELLS/uL and the “ABSOLUTE LYMPHOCYTE” value [1] was 10855 CELLS/uL. The “ABSOLUTE MONOCYTE” value [1] was 0 CELLS/uL, the “ABSOLUTE SEGMENTED NEUTROPHIL” value [1] was 1111.67 CELLS/uL and the BASOPHIL [1] was 0%. For the same compound, the EOSINOPHIL [1] was 0%, the “ERYTHROCYTE COUNT” value [1] was 5.53 x10E6/uL and the HEMATOCRIT [1] was 35%. For the same compound, the HEMOGLOBIN [1] was 13.9 G/DL, the “LEUKOCYTE COUNT” value [1] was 11.97 x10E3/uL and the LYMPHOCYTE [1] was 90.67%. For the same compound, the “MEAN CORPUSCULAR HEMOGLOBIN” value [1] was 25.2 pg, the “MEAN CORPUSCULAR HEMOGLOBIN CONCENTRATION” value [1] was 39.77 G/DL and the “MEAN CORPUSCULAR VOLUME” value [1] was 63.37 fL. For the same compound, the MONOCYTE [1] was 0%, the NEUTROPHIL [1] was 9.33% and the “NUCLEATED RED BLOOD CELLS” value [1] was 0 /100WBC. The “PLATELET COUNT” value [1] was 1189 x10E3/uL, the “ALANINE AMINOTRANSFERASE” value [1] was 54.33 u/L and the ALBUMIN [1] was 4.2 G/DL. The “ALKALINE PHOSPHATASE” value [1] was 319 u/L, the “ASPARTATE AMINOTRANSFERASE” value [1] was 78.33 u/L and the “BLOOD UREA NITROGEN” value [1] was 16.67 mg/dL. For the same compound, the “CARBON DIOXIDE” value [1] was 24.67 mmol/L, the CHLORIDE [1] was 102.33 MEQ/L and the CHOLESTEROL [1] was 81.33 mg/dL. The “CREATINE PHOSPHOKINASE” value [1] was 352 u/L, the CREATININE [1] was 0.18 mg/dL and the GLUCOSE [1] was 154.67 mg/dL. For the same compound, the “LACTATE DEHYDROGENASE” value [1] was 179 u/L, the LIPASE [1] was 9.33 u/L and the PHOSPHORUS [1] was 12.83 mg/dL. The POTASSIUM [1] was 6.38 MEQ/L, the SODIUM [1] was 144.7 MEQ/L and the “TOTAL BILIRUBIN” value [1] was 0.23 mg/dL. For the same compound, the “TOTAL PROTEIN” value [1] was 6 G/DL, the “URIC ACID” value [1] was 1.6 mg/dL and the “ABSOLUTE BASOPHIL” value [2] was 0 CELLS/uL. For the same compound, the “ABSOLUTE EOSINOPHIL” value [2] was 0 CELLS/uL, the “ABSOLUTE LYMPHOCYTE” value [2] was 11965.67 CELLS/uL and the “ABSOLUTE MONOCYTE” value [2] was 420.67 CELLS/uL. The “ABSOLUTE SEGMENTED NEUTROPHIL” value [2] was 2847 CELLS/uL, the BASOPHIL [2] was 0% and the EOSINOPHIL [2] was 0%. For the same compound, the “ERYTHROCYTE COUNT” value [2] was 6.58 x10E6/uL, the HEMATOCRIT [2] was 40.53% and the HEMOGLOBIN [2] was 15.87 G/DL. The “LEUKOCYTE COUNT” value [2] was 15.23 x10E3/uL, the LYMPHOCYTE [2] was 77.33% and the “MEAN CORPUSCULAR HEMOGLOBIN” value [2] was 24.13 pg. The “MEAN CORPUSCULAR HEMOGLOBIN CONCENTRATION” value [2] was 39.17 G/DL, the “MEAN CORPUSCULAR VOLUME” value [2] was 61.6 fL and the MONOCYTE [2] was 2.67%. For the same compound, the NEUTROPHIL [2] was 20%, the “NUCLEATED RED BLOOD CELLS” value [2] was 0 /100WBC and the “PLATELET COUNT” value [2] was 1375.67 x10E3/uL. The “ALANINE AMINOTRANSFERASE” value [2] was 80 u/L, the ALBUMIN [2] was 4.43 G/DL and the “ALKALINE PHOSPHATASE” value [2] was 350.33 u/L. The “ASPARTATE AMINOTRANSFERASE” value [2] was 113.67 u/L, the “BLOOD UREA NITROGEN” value [2] was 14 mg/dL and the “CARBON DIOXIDE” value [2] was 31 mmol/L. For the same compound, the CHLORIDE [2] was 96.33 MEQ/L, the CHOLESTEROL [2] was 148.67 mg/dL and the “CREATINE PHOSPHOKINASE” value [2] was 217 u/L. For the same compound, the CREATININE [2] was 0.21 mg/dL, the GLUCOSE [2] was 160 mg/dL and the “LACTATE DEHYDROGENASE” value [2] was 259 u/L. It also gave an LIPASE [2] of 11 u/L, a PHOSPHORUS [2] of 12.37 mg/dL and a POTASSIUM [2] of 5.97 MEQ/L. For the same compound, the SODIUM [2] was 145.43 MEQ/L, the “TOTAL BILIRUBIN” value [2] was 0.47 mg/dL and the “TOTAL PROTEIN” value [2] was 6.3 G/DL. The “URIC ACID” value [2] was 1.7 mg/dL, the “ABSOLUTE BASOPHIL” value [3] was 0 CELLS/uL and the “ABSOLUTE EOSINOPHIL” value [3] was 0 CELLS/uL. For the same compound, the “ABSOLUTE LYMPHOCYTE” value [3] was 11388 CELLS/uL, the “ABSOLUTE MONOCYTE” value [3] was 273 CELLS/uL and the “ABSOLUTE SEGMENTED NEUTROPHIL” value [3] was 2639 CELLS/uL. The BASOPHIL [3] was 0%, the EOSINOPHIL [3] was 0% and the “ERYTHROCYTE COUNT” value [3] was 6.24 x10E6/uL. The HEMATOCRIT [3] was 38.2%, the HEMOGLOBIN [3] was 15.25 G/DL and the “LEUKOCYTE COUNT” value [3] was 14.3 x10E3/uL. The LYMPHOCYTE [3] was 79%, the “MEAN CORPUSCULAR HEMOGLOBIN” value [3] was 24.5 pg and the “MEAN CORPUSCULAR HEMOGLOBIN CONCENTRATION” value [3] was 39.9 G/DL. The “MEAN CORPUSCULAR VOLUME” value [3] was 61.45 fL, the MONOCYTE [3] was 2% and the NEUTROPHIL [3] was 19%. For the same compound, the “NUCLEATED RED BLOOD CELLS” value [3] was 0 /100WBC, the “PLATELET COUNT” value [3] was 1196.5 x10E3/uL and the “ALANINE AMINOTRANSFERASE” value [3] was 114 u/L. The ALBUMIN [3] was 3.85 G/DL, the “ALKALINE PHOSPHATASE” value [3] was 310.5 u/L and the “ASPARTATE AMINOTRANSFERASE” value [3] was 198.5 u/L. For the same compound, the “BLOOD UREA NITROGEN” value [3] was 19 mg/dL, the “CARBON DIOXIDE” value [3] was 24.5 mmol/L and the CHLORIDE [3] was 97.5 MEQ/L. For the same compound, the CHOLESTEROL [3] was 104 mg/dL, the “CREATINE PHOSPHOKINASE” value [3] was 397.5 u/L and the CREATININE [3] was 0.18 mg/dL. The GLUCOSE [3] was 120.5 mg/dL, the “LACTATE DEHYDROGENASE” value [3] was 645 u/L and the LIPASE [3] was 12.5 u/L. For the same compound, the PHOSPHORUS [3] was 11 mg/dL, the POTASSIUM [3] was 5.77 MEQ/L and the SODIUM [3] was 142.7 MEQ/L. The “TOTAL BILIRUBIN” value [3] was 0.6 mg/dL, the “TOTAL PROTEIN” value [3] was 5.65 G/DL and the “URIC ACID” value [3] was 1.35 mg/dL.

— ChEMBL document CHEMBL3885881, “DrugMatrix”
